Assay results: ChEMBL document CHEMBL3763146 (J Med Chem, 2016)
Blank lines part the entries; values can stand above or below the molecule they belong to.

What was measured:
[1] = Half life in dog at 0.5 mg/kg, iv or 2 mg/kg, po; format: ADME, organism-based, Canis lupus familiaris; conditions: in vivo
[2] = test system: Rhesus monkey; experiment: Unbound clearance in rhesus monkey at 0.5 mg/kg, iv or 2 mg/kg, po; format: ADME, organism-based, Macaca mulatta; conditions: in vivo
[3] = Half life in rat at 1 mg/kg, iv or 2 mg/kg, po; format: ADME, organism-based; conditions: in vivo
[4] = Half life in rhesus monkey at 0.5 mg/kg, iv or 2 mg/kg, po; format: ADME, organism-based, Macaca mulatta; conditions: in vivo
[5] = Oral bioavailability in rhesus monkey at 2 mg/kg; format: ADME, organism-based, Macaca mulatta; conditions: in vivo
[6] = biological target: Beta-3 adrenergic receptor (Rattus norvegicus) (UniProt P26255); experiment: Agonist activity at rat beta3 adrenergic receptor expressed in CHO cells assessed as accumulation of cAMP after 30 mins by TR-FRET assay in presence of 40% serum relative to (R)-(-)-isoproterenol; format: functional, cell-based
[7] = biological target: Beta-3 adrenergic receptor (Canis lupus familiaris, UniProt O02662); experiment: Agonist activity at dog beta3 adrenergic receptor expressed in CHO cells assessed as accumulation of cAMP after 30 mins by TR-FRET assay; format: functional, cell-based
[8] = Fraction unbound in rat at 1 mg/kg, iv or 2 mg/kg, po; format: ADME, organism-based; conditions: in vivo
[9] = biological target: Cytochrome P450 2D6 (Homo sapiens, UniProt P10635); experiment: Inhibition of CYP2D6 in human liver microsomes assessed as dextraomethorphan O-demethylation; format: ADME
Cytochrome P450 2D6, sequence (P10635 whole entry): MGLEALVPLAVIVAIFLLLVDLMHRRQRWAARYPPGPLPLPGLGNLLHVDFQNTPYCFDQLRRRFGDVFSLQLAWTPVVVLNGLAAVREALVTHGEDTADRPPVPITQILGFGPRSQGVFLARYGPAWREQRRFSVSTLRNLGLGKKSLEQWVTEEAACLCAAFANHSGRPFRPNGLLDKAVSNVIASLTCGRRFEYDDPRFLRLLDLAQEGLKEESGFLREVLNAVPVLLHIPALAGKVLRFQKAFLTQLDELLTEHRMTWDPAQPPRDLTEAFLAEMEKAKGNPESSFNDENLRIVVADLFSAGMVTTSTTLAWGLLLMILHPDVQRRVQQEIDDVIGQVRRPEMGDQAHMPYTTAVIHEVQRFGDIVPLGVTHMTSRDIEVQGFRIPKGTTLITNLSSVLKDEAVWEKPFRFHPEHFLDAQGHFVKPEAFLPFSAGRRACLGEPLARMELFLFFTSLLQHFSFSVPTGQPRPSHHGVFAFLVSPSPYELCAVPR

[10] = Stability in rat plasma assessed as parent compound remaining at 24 hrs by LC-MS analysis; format: ADME, cell-free; conditions: read-out: Stability
[11] = biological target: Beta-2 adrenergic receptor (Homo sapiens, UniProt P07550)
Beta-2 adrenergic receptor, sequence (P07550 whole entry): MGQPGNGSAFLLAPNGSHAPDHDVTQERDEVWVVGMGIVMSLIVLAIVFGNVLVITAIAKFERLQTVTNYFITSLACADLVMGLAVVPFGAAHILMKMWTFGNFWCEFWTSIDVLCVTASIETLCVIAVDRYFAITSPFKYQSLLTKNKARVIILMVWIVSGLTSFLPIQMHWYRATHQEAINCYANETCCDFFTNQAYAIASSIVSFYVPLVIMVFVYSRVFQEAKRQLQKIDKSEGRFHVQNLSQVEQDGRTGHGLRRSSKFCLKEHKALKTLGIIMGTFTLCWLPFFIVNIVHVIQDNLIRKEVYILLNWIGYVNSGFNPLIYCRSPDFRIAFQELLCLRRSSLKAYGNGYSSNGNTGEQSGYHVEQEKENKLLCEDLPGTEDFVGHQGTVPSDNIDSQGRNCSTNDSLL
Description: Displacement of [125]I-cyanopindolol from human recombinant beta2 adrenergic receptor after 1 hr by scintillation counting method

[12] = Fraction unbound in rhesus monkey at 0.5 mg/kg, iv or 2 mg/kg, po; format: ADME, organism-based, Macaca mulatta; conditions: in vivo
[13] = Induction of phospholidosis in human HepG2 cells incubated overnight by […] in presence of fluorescent labeled phospholipid probe NBD-PE; format: cell-based; conditions: read-out: A50
[14] = Oral bioavailability in rat at 2 mg/kg; format: ADME, organism-based; conditions: in vivo
[15] = biological target: Voltage-dependent L-type calcium channel subunit alpha-1C (Homo sapiens, UniProt Q13936); experiment: Displacement of [3H]-diltiazem from human Cav1.2 channel
[16] = biological target: Beta-3 adrenergic receptor (Macaca mulatta) (UniProt Q28524); experiment: Agonist activity at rhesus monkey beta3 adrenergic receptor expressed in CHO cells assessed as accumulation of cAMP after 30 mins by TR-FRET assay relative to (R)-(-)-isoproterenol; format: functional, cell-based
[17] = test system: Rattus norvegicus; experiment: Unbound clearance in rat at 1 mg/kg, iv or 2 mg/kg, po; format: ADME, organism-based; conditions: in vivo
[18] = biological target: Sodium channel protein type 2 subunit alpha (Homo sapiens, UniProt Q99250); experiment: Inhibition of human Nav1.2 channel expressed in Xenopus oocytes by two-intracellular microelectrode voltage clamp method; format: cell-based
Sodium channel protein type 2 subunit alpha, sequence (Q99250 whole entry, looked up): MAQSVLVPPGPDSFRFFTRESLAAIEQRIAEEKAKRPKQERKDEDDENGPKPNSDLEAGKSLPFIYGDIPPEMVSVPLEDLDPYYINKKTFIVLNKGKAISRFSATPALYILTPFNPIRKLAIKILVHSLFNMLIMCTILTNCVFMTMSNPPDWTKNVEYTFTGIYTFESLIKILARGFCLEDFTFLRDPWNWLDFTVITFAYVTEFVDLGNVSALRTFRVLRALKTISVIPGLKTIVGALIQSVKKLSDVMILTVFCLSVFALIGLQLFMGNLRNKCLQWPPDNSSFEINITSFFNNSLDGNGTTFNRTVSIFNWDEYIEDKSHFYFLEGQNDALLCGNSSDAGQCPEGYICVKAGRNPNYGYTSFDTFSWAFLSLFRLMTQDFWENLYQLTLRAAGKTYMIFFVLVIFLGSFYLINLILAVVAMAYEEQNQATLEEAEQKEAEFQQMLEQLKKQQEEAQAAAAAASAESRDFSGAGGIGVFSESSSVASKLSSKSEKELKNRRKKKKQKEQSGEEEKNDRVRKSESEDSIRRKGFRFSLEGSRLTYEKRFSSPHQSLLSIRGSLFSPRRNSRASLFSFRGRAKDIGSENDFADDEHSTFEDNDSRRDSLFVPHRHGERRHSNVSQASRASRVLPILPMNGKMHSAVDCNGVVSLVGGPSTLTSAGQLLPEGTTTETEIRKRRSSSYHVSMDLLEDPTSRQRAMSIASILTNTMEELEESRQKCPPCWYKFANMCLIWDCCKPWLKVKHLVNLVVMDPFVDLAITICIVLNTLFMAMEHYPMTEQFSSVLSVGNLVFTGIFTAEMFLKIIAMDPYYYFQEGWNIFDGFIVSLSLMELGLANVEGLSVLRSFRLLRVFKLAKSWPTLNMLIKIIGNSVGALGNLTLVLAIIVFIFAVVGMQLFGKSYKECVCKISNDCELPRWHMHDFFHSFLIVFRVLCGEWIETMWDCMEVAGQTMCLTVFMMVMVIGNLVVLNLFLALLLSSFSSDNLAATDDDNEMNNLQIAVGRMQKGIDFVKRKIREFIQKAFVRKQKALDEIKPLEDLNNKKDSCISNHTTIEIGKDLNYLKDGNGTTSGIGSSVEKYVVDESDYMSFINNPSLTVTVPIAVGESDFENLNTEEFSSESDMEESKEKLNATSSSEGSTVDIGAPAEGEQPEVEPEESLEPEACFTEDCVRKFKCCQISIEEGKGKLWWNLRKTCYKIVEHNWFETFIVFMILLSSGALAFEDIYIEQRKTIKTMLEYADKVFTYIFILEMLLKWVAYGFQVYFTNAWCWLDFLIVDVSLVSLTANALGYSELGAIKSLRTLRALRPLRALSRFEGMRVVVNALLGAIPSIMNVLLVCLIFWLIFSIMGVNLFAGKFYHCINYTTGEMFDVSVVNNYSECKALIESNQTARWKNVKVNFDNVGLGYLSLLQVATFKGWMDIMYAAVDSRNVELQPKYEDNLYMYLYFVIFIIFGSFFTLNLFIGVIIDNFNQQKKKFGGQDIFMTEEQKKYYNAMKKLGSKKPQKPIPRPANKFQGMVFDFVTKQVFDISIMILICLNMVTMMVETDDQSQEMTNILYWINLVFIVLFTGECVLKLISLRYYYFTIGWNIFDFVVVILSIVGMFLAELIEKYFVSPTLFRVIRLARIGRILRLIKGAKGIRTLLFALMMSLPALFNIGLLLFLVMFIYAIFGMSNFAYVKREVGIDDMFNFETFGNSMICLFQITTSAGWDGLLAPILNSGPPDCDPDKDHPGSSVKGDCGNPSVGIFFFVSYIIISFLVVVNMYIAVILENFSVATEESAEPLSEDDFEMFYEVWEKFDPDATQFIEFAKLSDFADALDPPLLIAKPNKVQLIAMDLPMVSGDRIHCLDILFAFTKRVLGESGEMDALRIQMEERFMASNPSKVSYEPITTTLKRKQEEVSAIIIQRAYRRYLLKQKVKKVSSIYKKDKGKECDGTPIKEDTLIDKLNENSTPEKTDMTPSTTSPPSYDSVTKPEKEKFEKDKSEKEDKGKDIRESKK

[19] = biological target: Beta-1 adrenergic receptor (Homo sapiens, UniProt P08588)
Beta-1 adrenergic receptor, sequence (P08588 whole entry): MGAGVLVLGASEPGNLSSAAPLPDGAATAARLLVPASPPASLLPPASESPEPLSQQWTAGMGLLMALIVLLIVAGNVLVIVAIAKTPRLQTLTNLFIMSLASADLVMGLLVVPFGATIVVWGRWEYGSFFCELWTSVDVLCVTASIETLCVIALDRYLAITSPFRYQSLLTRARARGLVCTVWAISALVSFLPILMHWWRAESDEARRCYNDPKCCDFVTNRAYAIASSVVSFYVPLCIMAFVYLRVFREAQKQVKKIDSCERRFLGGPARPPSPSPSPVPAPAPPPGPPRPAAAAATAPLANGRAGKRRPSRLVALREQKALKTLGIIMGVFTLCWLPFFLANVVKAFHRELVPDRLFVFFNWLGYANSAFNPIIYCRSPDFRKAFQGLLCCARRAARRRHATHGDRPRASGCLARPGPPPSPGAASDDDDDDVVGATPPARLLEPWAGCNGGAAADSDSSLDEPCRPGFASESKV
Description: Displacement of [125]I-cyanopindolol from recombinant human beta1 adrenergic receptor after 1 hr by scintillation counting method

[20] = test system: Rhesus monkey; experiment: Dose normalized total AUC in rhesus monkey at 2 mg/kg, po; format: ADME, organism-based, Macaca mulatta; conditions: in vivo
[21] = Stability in dog plasma assessed as parent compound remaining at 24 hrs by LC-MS analysis; format: ADME, cell-free, Canis lupus familiaris; conditions: read-out: Stability
[22] = biological target: T1, Beta-3 adrenergic receptor (Rattus norvegicus, UniProt P26255); experiment: Agonist activity at rat beta3 adrenergic receptor expressed in CHO cells assessed as accumulation of cAMP after 30 mins by TR-FRET assay in presence of 40% serum; format: functional, cell-based
[23] = Intrinsic clearance in rhesus monkey liver microsomes; format: ADME, Macaca mulatta; conditions: read-out: CLH
[24] = biological target: T2, Beta-3 adrenergic receptor (Homo sapiens, UniProt P13945); experiment: Agonist activity at human adrenergic beta3 receptor expressed in CHO cells assessed as accumulation of cAMP after 30 mins by TR-FRET assay in presence of 40% serum; format: functional, cell-based
Target sequence in this assay (P13945 whole entry): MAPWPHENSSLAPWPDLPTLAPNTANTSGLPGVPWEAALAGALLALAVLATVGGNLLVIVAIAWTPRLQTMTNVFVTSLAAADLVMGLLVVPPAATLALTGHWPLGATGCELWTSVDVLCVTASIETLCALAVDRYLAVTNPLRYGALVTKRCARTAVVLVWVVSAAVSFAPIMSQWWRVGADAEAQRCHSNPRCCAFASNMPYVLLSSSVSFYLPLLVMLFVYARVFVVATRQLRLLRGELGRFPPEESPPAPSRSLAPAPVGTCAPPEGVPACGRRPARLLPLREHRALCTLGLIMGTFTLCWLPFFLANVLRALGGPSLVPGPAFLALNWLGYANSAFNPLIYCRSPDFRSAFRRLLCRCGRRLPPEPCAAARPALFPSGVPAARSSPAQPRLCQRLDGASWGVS

[25] = biological target: Sodium-dependent serotonin transporter (Homo sapiens, UniProt P31645); experiment: Inhibition of human SERT expressed in HEK293 cells preincubated for 30 mins followed by fluorescent substrate addition measured after 30 mins by plate reader analysis; format: cell-based
Sodium-dependent serotonin transporter, sequence (P31645 whole entry): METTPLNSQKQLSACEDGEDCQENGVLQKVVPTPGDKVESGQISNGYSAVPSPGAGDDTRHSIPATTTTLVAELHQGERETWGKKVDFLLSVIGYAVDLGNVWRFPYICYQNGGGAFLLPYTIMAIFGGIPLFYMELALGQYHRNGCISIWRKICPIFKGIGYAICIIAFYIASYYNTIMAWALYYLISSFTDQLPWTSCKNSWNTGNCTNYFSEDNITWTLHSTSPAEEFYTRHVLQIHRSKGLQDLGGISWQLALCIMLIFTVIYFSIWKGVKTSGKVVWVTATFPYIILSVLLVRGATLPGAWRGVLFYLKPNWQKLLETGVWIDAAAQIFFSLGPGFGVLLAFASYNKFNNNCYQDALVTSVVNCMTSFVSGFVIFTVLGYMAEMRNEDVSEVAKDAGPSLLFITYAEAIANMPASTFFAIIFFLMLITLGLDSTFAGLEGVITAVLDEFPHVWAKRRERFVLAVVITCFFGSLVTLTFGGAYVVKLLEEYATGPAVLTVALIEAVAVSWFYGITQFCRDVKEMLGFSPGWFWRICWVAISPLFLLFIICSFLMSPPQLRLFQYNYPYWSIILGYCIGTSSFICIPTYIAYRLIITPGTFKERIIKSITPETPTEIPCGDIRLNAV

[26] = biological target: Cytochrome P450 2C9 (Homo sapiens, UniProt P11712); experiment: Inhibition of CYP2C9 in human liver microsomes assessed as diclofenac alpha'-hydroxylation; format: ADME
Cytochrome P450 2C9, sequence (P11712 whole entry): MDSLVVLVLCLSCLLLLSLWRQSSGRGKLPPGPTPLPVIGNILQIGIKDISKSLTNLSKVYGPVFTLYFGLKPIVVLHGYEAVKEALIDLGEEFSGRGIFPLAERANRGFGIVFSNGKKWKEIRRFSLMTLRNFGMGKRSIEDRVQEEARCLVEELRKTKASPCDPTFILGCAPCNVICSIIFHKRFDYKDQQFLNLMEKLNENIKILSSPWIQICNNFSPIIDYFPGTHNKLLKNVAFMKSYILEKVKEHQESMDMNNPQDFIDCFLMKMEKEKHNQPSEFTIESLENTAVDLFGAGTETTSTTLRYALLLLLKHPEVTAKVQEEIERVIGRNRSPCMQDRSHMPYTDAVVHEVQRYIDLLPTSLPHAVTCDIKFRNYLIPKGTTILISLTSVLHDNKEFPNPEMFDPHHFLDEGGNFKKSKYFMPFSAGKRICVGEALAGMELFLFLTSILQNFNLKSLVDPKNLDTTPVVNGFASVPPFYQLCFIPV

[27] = Oral bioavailability in dog at 2 mg/kg; format: ADME, organism-based, Canis lupus familiaris; conditions: in vivo
[28] = biological target: Cytochrome P450 3A4 (Homo sapiens, UniProt P08684); experiment: Inhibition of CYP3A4 in human liver microsomes assessed as testosterone 6beta-hydroxylation; format: ADME
[29] = test system: Canis familiaris; experiment: Dose normalized total AUC in dog at 2 mg/kg, po; format: ADME, organism-based, Canis lupus familiaris; conditions: in vivo
[30] = biological target: T2, Beta-3 adrenergic receptor; experiment: Agonist activity at human beta3 adrenergic receptor expressed in CHO cells assessed as accumulation of cAMP after 30 mins by TR-FRET assay; format: functional, cell-based
Target sequence in this assay (P13945 whole entry): as the sequence (P13945 whole entry) above

[31] = test system: Rattus norvegicus; experiment: Dose normalized fAUC in rat at 2 mg/kg, po; format: ADME, organism-based; conditions: in vivo
[32] = biological target: T1, Beta-3 adrenergic receptor; experiment: Agonist activity at rat beta3 adrenergic receptor expressed in CHO cells assessed as accumulation of cAMP after 30 mins by TR-FRET assay; format: functional, cell-based
[33] = biological target: Beta-3 adrenergic receptor (Rattus norvegicus) (UniProt P26255); experiment: Agonist activity at rat beta3 adrenergic receptor expressed in CHO cells assessed as accumulation of cAMP after 30 mins by TR-FRET assay relative to (R)-(-)-isoproterenol; format: functional, cell-based
[34] = Distribution coefficient, logD of the compound at pH 7.4; format: physicochemical; conditions: octanol/water
[35] = Intrinsic clearance in dog liver microsomes; format: ADME, Canis lupus familiaris; conditions: read-out: CLH
[36] = test system: Rattus norvegicus; experiment: Increase in detrusor muscle relaxation in iv infused Sprague-Dawley rat acetic acid-induced bladder hyperreflexia model assessed as decrease in micturition pressure measured over 30 to 45 mins; format: functional, organism-based
[37] = test system: Rattus norvegicus; experiment: Dose normalized total AUC in rat at 2 mg/kg, po; format: ADME, organism-based; conditions: in vivo
[38] = test system: Canis familiaris; experiment: Dose normalized fAUC in dog at 2 mg/kg, po; format: ADME, organism-based, Canis lupus familiaris; conditions: in vivo
[39] = biological target: T2, Beta-3 adrenergic receptor; experiment: Agonist activity at human beta3 adrenergic receptor expressed in CHO cells assessed as accumulation of cAMP after 30 mins by TR-FRET assay relative to (R)-(-)-isoproterenol; format: functional, cell-based
Target sequence in this assay (P13945 whole entry, looked up): as the sequence (P13945 whole entry) above

[40] = Plasma clearance in rhesus monkey at 0.5 mg/kg, iv or 2 mg/kg, po; format: ADME, organism-based, Macaca mulatta
[41] = Plasma clearance in dog at 0.5 mg/kg, iv or 2 mg/kg, po; format: ADME, organism-based, Canis lupus familiaris
[42] = Intrinsic clearance in rat liver microsomes; format: ADME; conditions: read-out: CLH
[43] = Fraction unbound in dog at 0.5 mg/kg, iv or 2 mg/kg, po; format: ADME, organism-based, Canis lupus familiaris; conditions: in vivo
[44] = Stability in human plasma assessed as parent compound remaining at 24 hrs by LC-MS analysis; format: ADME, cell-free; conditions: read-out: Stability
[45] = test system: Canis familiaris; experiment: Unbound clearance in dog at 0.5 mg/kg, iv or 2 mg/kg, po; format: ADME, organism-based, Canis lupus familiaris; conditions: in vivo
[46] = test system: Rhesus monkey; experiment: Dose normalized fAUC in rhesus monkey at 2 mg/kg, po; format: ADME, organism-based, Macaca mulatta; conditions: in vivo
[47] = Intrinsic clearance in human liver microsomes; format: ADME; conditions: read-out: CLH
[48] = biological target: T2, Beta-3 adrenergic receptor; experiment: Agonist activity at human adrenergic beta3 receptor expressed in CHO cells assessed as accumulation of cAMP after 30 mins by TR-FRET assay in presence of 40% serum relative to (R)-(-)-isoproterenol; format: functional, cell-based
Target sequence in this assay (P13945 whole entry, looked up): as the sequence (P13945 whole entry) above

[49] = test system: Rattus norvegicus; experiment: Increase in detrusor muscle relaxation in iv infused Sprague-Dawley rat acetic acid-induced bladder hyperreflexia model assessed as increase in functional bladder capacity measured over 30 to 45 mins; format: organism-based
[50] = Plasma clearance in rat at 1 mg/kg, iv or 2 mg/kg, po; format: ADME, organism-based
[51] = Stability in rhesus monkey plasma assessed as parent compound remaining at 24 hrs by LC-MS analysis; format: ADME, cell-free, Macaca mulatta; conditions: read-out: Stability
[52] = biological target: Beta-3 adrenergic receptor (Macaca mulatta, UniProt Q28524); experiment: Agonist activity at rhesus monkey beta3 adrenergic receptor expressed in CHO cells assessed as accumulation of cAMP after 30 mins by TR-FRET assay; format: functional, cell-based
[53] = biological target: Voltage-gated inwardly rectifying potassium channel KCNH2 (Homo sapiens, UniProt Q12809); experiment: Binding affinity to human ERG channel

Structure (SMILES): O=C(Cn1cnccc1=O)Nc1ccc(C[C@@H]2CC[C@H]([C@H](O)c3ccccc3)N2)cc1
- IC50 [11]: > 20 µM
- IC50 [53]: > 30 µM
- AC50 [13]: > 100 µM
- IC50 [15]: > 30 µM
- IC50 [18]: > 30 µM
- IC50 [19]: > 20 µM
- IC50 [25]: 0.7 µM
- EC50 [30]: 0.0039 µM
- max activation [39]: 91%

Structure (SMILES): O=C(Nc1ccc(C[C@@H]2CC[C@H]([C@H](O)c3cccnc3)N2)cc1)[C@@H]1CCc2scnc21
- remaining at 24 h [10]: 79%
- AC50 [13]: 79 µM
- logD [34]: 1.1
- max activation [39]: 82%
- remaining at 24 h [44]: 1%

Further lines, with some results ahead:

- half-life [1]: 8 h
- CL free [2]: 33 mL/min/kg
- half-life [3]: 5 h
- half-life [4]: 9 h
- bioavailability [5]: 46%
- max activation [6]: 99%
- EC50 [7]: 0.047 µM
- fraction unbound [8]: 0.27
- IC50 [9]: > 100 µM
- remaining at 24 h [10]: 95%
- IC50 [11]: > 20 µM
- fraction unbound [12]: 0.63
- AC50 [13]: 67 µM
- bioavailability [14]: 14%
- max activation [16]: 91%
- CL free [17]: 148 mL/min/kg
- IC50 [18]: > 30 µM
- IC50 [19]: > 20 µM
- AUC/dose [20]: 820 nM·h/mg/kg
- remaining at 24 h [21]: 100%
- EC50 [22]: 1.06 µM
- CLint scaled [23]: < 10 mL/min/kg
- EC50 [24]: 0.0059 µM
- IC50 [25]: 4.4 µM
- IC50 [26]: > 100 µM
- bioavailability [27]: 18%
- IC50 [28]: > 100 µM
- AUC/dose [29]: 1200 nM·h/mg/kg
- EC50 [30]: 0.0048 µM
- fAUC/dose [31]: 17 nM·h/mg/kg
- EC50 [32]: 0.615 µM
- max activation [33]: 79%
- logD [34]: 1
- CLint scaled [35]: 11 mL/min/kg
- AUC/dose [37]: 66 nM·h/mg/kg
- fAUC/dose [38]: 612 nM·h/mg/kg
- max activation [39]: 105%
- clearance [40]: 21 mL/min/kg
- clearance [41]: 7.4 mL/min/kg
- CLint scaled [42]: < 15 mL/min/kg
- fraction unbound [43]: 0.51
- remaining at 24 h [44]: 26%
- CL free [45]: 15 mL/min/kg
- fAUC/dose [46]: 517 nM·h/mg/kg
- CLint scaled [47]: < 10 mL/min/kg
- max activation [48]: 96%
- clearance [50]: 40 mL/min/kg
- remaining at 24 h [51]: 95%
- EC50 [52]: 0.0035 µM
Structure (SMILES): O=C(Cn1ncccc1=O)Nc1ccc(C[C@@H]2CC[C@H]([C@H](O)c3ccccc3)N2)cc1
- IC50 [15]: > 30 µM
- Activity [36]: Dose-dependent effect
- Activity [49]: Dose-dependent effect

- remaining at 24 h [10]: 97%
- AC50 [13]: 94 µM
- remaining at 24 h [21]: 100%
- logD [34]: 0.9
- max activation [39]: 84%
- remaining at 24 h [44]: 0%
- remaining at 24 h [51]: 87%
Structure (SMILES): O=C(Nc1ccc(C[C@@H]2CC[C@H]([C@H](O)c3cccnc3)N2)cc1)[C@@H]1CCc2ccnn21

- IC50 [9]: 31 µM
- IC50 [11]: 2.2 µM
- AC50 [13]: 8.6 µM
- IC50 [18]: > 30 µM
- IC50 [19]: > 20 µM
- IC50 [25]: 0.2 µM
- IC50 [26]: > 100 µM
- IC50 [28]: 96 µM
- EC50 [30]: 0.0017 µM
- logD [34]: 2
- max activation [39]: 108%
Structure (SMILES): O=C(Cn1cnc2ccccc2c1=O)Nc1ccc(C[C@@H]2CC[C@H]([C@H](O)c3ccccc3)N2)cc1
- IC50 [15]: 13 µM
